Measured values: US20240317744A1, “Bicyclic Ureas As Kinase Inhibitors” (Incyte Corporation, priority 2023, published 2024)

Legend:
[1] = molecular target: T1, catalytic domain (JH1, amino acids 826-1132) of human JAK2 (Homo sapiens, UniProt O60674); assay: JAK2 LanthaScreen JH1 Binding Assay; conditions: JAK2 JH1 1.5 nM, 50 nM tracer, 2 hours at 25° C.; read-out: JH1 BIND
T1 construct: catalytic domain (JH1, amino acids 826-1132) of human JAK2; FLAG (N); biotin (biotinylated); purchased Carna Biosciences 08-445-20N; host or cells: baculovirus expression system
T1 sequence (O60674 826-1132): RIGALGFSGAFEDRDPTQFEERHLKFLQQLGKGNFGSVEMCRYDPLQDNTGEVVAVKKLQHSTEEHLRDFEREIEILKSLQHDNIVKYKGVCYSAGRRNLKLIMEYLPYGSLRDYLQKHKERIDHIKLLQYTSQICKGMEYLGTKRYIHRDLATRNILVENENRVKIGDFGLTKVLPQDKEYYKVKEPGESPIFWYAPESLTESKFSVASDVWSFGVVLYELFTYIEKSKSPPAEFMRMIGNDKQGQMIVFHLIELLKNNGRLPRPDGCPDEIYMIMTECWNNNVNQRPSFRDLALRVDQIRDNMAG
Method in brief: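 FLAG-tagged, biotinylated JAK2 JH1 (aa 826-1132, baculovirus-expressed; 1.5 nM) incubated 2 h at 25° C with compounds, 50 nM fluorescent tracer and 0.5 nM Streptavidin-Tb in Tris pH 7.5 buffer with MgCl2, Brij-35, BSA, EGTA, glycerol, DTT. Nonspecific binding defined with 2 mM ATP; TR-FRET IC50 from four-parameter fit.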

[2] = molecular target: T2, pseudo-kinase domain (JH2, amino-acids 536-812) of human Wild Type JAK2 (Homo sapiens, UniProt O60674, F794H/W659A/W777A); assay: JAK2 LanthaScreen JH2-WT Binding Assay; conditions: JAK2 JH2-WT 0.145 nM, 50 nM tracer, 1 hour at 25° C.; read-out: JH2 BIND WT
T2 construct: pseudo-kinase domain (JH2, amino-acids 536-812 with 3 surface mutations W659A, W777A, F794H); His (C); purchased BPS Bioscience 79463; host or cells: baculovirus expression system
T2 sequence (O60674 536-812 W659A/W777A/F794H): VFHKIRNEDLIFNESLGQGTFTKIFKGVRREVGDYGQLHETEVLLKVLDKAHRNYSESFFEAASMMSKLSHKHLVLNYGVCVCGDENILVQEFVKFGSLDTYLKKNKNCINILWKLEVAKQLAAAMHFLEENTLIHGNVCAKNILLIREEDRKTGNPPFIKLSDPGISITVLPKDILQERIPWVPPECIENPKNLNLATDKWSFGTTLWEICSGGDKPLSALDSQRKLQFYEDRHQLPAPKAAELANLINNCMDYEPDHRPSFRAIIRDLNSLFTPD
Method in brief: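 IC50 values derive from four-parameter fits of LanthaScreen signal, measuring displacement of 50 nM fluorescent tracer from 0.145 nM biotinylated, baculovirus-expressed JH2 (536-812) detected by 0.25 nM streptavidin-Tb. Incubation lasts 1 hour at 25° C, pH 7.5.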

[3] = molecular target: T3, pseudo-kinase domain (JH2, amino-acids 536-812) of human V617F mutant JAK2 (Homo sapiens, UniProt O60674, F794H/V617F/W659A/W777A); assay: JAK2 LanthaScreen JH2-V617F Binding Assay; conditions: JAK2 JH2-V617F 0.26 nM, 50 nM tracer, 1 hour at 25° C.; read-out: JH2 BIND V617F
T3 construct: pseudo-kinase domain (JH2, amino-acids 536-812 with 3 surface mutations W659A, W777A, F794H); His (C); purchased BPS Bioscience 79498; host or cells: baculovirus expression system
T3 sequence (O60674 536-812 V617F/W659A/W777A/F794H): as the sequence (O60674 536-812 W659A/W777A/F794H) above, with V82F counted along it
Method in brief: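 Biotinylated His-Avi-tagged JH2 protein was baculovirus-expressed and used at 0.26 nM. It was incubated with compound, 50 nM fluorescent JH2 tracer and 0.25 nM streptavidin-Tb for 1 h at 25 °C in pH 7.5 Tris buffer with MgCl2, BSA, DTT. Non-specific binding was defined with 2 mM ATP. IC50 came from four-parameter fits of TR-FRET signal.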

[4] = molecular target: catalytic domain (JH1, amino acids 808-1132) of human JAK2 (Homo sapiens, UniProt O60674); assay: JAK2 HTRF Enzyme Activity Assay; type: biochemical; conditions: ATP 30 µM, 60 minutes at 25° C.; read-out: V617F ENZ 30 UM
Chain of catalytic domain (JH1, amino acids 808-1132) of human JAK2 (O60674 808-1132 limits assumed): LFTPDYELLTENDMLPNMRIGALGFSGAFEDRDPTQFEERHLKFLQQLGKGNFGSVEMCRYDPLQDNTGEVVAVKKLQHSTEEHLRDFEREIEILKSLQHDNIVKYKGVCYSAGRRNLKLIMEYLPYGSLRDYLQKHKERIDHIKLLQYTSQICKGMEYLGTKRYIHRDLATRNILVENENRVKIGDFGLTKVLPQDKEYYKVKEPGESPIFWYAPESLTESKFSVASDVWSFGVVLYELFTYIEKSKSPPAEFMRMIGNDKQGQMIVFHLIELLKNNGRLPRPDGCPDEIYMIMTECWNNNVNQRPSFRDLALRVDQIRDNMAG

**Q.** Which IC50 [1] does the source give for `[2H]C([2H])([2H])n1c(=O)n([C@@H]2CC[C@@H](NC(=O)OC)C2)c2cc(Nc3ccc4cccc(C5(C)CC5)c4n3)ncc21` [Example 58, Methyl ((1R,3R)-3-(3-(methyl-d3)-6-((8-(1-methylcyclopropyl)quinolin-2-yl)amino)-2-oxo-2,3-dihydro-1H-imidazo[4,5-c]pyridin-1-yl)cyclopentyl)carbamate] here?
**A.** > 1000 nM

**Q.** What about the IC50 [2] of the same compound?
**A.** ≤ 10 nM

**Q.** What about the IC50 [3] of the same compound?
**A.** ≤ 10 nM

**Q.** What about the IC50 [4] of the same compound?
**A.** > 1000 nM

**Q.** How did the IC50 [1] turn out when `[2H]C([2H])([2H])n1cc(-c2cnc3ccc(Nc4cc5c(cn4)n(C)c(=O)n5[C@@H]4CC[C@@H](NC(=O)OC)C4)nn23)c(F)n1` [Example 59, Methyl ((1R,3R)-3-(6-((3-(3-fluoro-1-(methyl-d3)-1H-pyrazol-4-yl)imidazo[1,2-b]pyridazin-6-yl)amino)-3-methyl-2-oxo-2,3-dihydro-1H-imidazo[4,5-c]pyridin-1-yl)cyclopentyl)carbamate] was run?
**A.** > 1000 nM

**Q.** What about the IC50 [2] of the same compound?
**A.** ≤ 10 nM

**Q.** What about the IC50 [3] of the same compound?
**A.** ≤ 10 nM

**Q.** What about the IC50 [4] of the same compound?
**A.** > 1000 nM

**Q.** Which IC50 [1] does the source give for `Cn1cc(-c2cc(NC(=O)OC3CCC3)cc(Nc3cc4c(cn3)n(C)c(=O)n4C3CCCC3)c2)cn1` [Example 60, Cyclobutyl (3-((1-cyclopentyl-3-methyl-2-oxo-2,3-dihydro-1H-imidazo[4,5-c]pyridin-6-yl)amino)-5-(1-methyl-1H-pyrazol-4-yl)phenyl)carbamate] here?
**A.** > 1000 nM

**Q.** What about the IC50 [2] of the same compound?
**A.** 10 to 100 nM

**Q.** What about the IC50 [3] of the same compound?
**A.** 10 to 100 nM

**Q.** What about the IC50 [4] of the same compound?
**A.** > 1000 nM

**Q.** For `Cn1c(=O)n(C2CCCC2)c2cc(Nc3cc(NC(=O)OC4CCC4)cc(-c4cnn(C5CC5)c4)c3)ncc21` [Example 61, Cyclobutyl (3-((1-cyclopentyl-3-methyl-2-oxo-2,3-dihydro-1H-imidazo[4,5-c]pyridin-6-yl)amino)-5-(1-cyclopropyl-1H-pyrazol-4-yl)phenyl)carbamate], which IC50 [1] is on record?
**A.** > 1000 nM

**Q.** And the IC50 [2]?
**A.** 10 to 100 nM

**Q.** What about the IC50 [3] of the same compound?
**A.** 100 to 500 nM

**Q.** What about the IC50 [4] of the same compound?
**A.** > 1000 nM

**Q.** `Cn1c(=O)n(C2CCOC2)c2cc(Nc3cc(NC(=O)OC4CCC4)cc(-c4cnn(C5CC5)c4)c3)ncc21` (centres unmarked) [Example 62, Cyclobutyl (3-(1-cyclopropyl-1H-pyrazol-4-yl)-5-((3-methyl-2-oxo-1-(tetrahydrofuran-3-yl)-2,3-dihydro-1H-imidazo[4,5-c]pyridin-6-yl)amino)phenyl)carbamate] was tested. Which IC50 [1] did it give?
**A.** > 1000 nM

**Q.** What about the IC50 [2] of the same compound?
**A.** 100 to 500 nM

**Q.** What about the IC50 [3] of the same compound?
**A.** 100 to 500 nM

**Q.** And the IC50 [4]?
**A.** > 1000 nM

**Q.** Which IC50 [1] does the source give for `[2H]C([2H])([2H])n1c(=O)n([C@@H]2CC[C@@H](NC(=O)OC)C2)c2cc(Nc3cc(COC4CCC4)cc(-c4ccc5c(c4)OCCO5)n3)ncc21` [Example 63, Methyl ((1R,3R)-3-(6-((4-(cyclobutoxymethyl)-6-(2,3-dihydrobenzo[b][1,4]dioxin-6-yl)pyridin-2-yl)amino)-3-(methyl-d3)-2-oxo-2,3-dihydro-1H-imidazo[4,5-c]pyridin-1-yl)cyclopentyl)carbamate] here?
**A.** > 1000 nM

**Q.** And the IC50 [2]?
**A.** ≤ 10 nM

**Q.** And the IC50 [3]?
**A.** 10 to 100 nM

**Q.** And the IC50 [4]?
**A.** > 1000 nM

**Q.** For `COC(=O)N[C@@H]1CC[C@@H](n2c(=O)n(C)c3cnc(Nc4cccc(N5CCC(N)C5)n4)cc32)C1` (stereo partly drawn) [Example 64, Methyl ((1R,3R)-3-(6-((6-(3-aminopyrrolidin-1-yl)pyridin-2-yl)amino)-3-methyl-2-oxo-2,3-dihydro-1H-imidazo[4,5-c]pyridin-1-yl)cyclopentyl)carbamate], which IC50 [1] is on record?
**A.** > 1000 nM

**Q.** And the IC50 [2]?
**A.** 10 to 100 nM

**Q.** And the IC50 [3]?
**A.** 10 to 100 nM

**Q.** What about the IC50 [4] of the same compound?
**A.** > 1000 nM

**Q.** `[2H]C([2H])([2H])n1c(=O)n([C@@H]2CC[C@@H](NC(=O)OC)C2)c2cc(Nc3cc(CNC4CCCC4)cc(-c4ccc5c(c4)OCCO5)n3)ncc21` [Example 65, Methyl ((1R,3R)-3-(6-((4-((cyclopentylamino)methyl)-6-(2,3-dihydrobenzo[b][1,4]dioxin-6-yl)pyridin-2-yl)amino)-3-(methyl-d3)-2-oxo-2,3-dihydro-1H-imidazo[4,5-c]pyridin-1-yl)cyclopentyl)carbamate] was tested. Which IC50 [1] did it give?
**A.** > 1000 nM

**Q.** And the IC50 [2]?
**A.** ≤ 10 nM

**Q.** And the IC50 [3]?
**A.** ≤ 10 nM

**Q.** What about the IC50 [4] of the same compound?
**A.** > 1000 nM
